These are literature values, as cited in PubChem BioAssay AID1259410 (Chemical Carcinogenesis Research Information System (CCRIS), 2018).

The data set relates to rodent tumor promotion studies, tumor incidence. The experiment in a line: CCRIS tumor promotion studies.

Turning to `O=[As]O`, the outcome is “skin: 3.6 tumors/mouse uv alone; 7.0 tumors/mouse uv and arsenite” (Carcinogen: UV RADIATION 3X A WK FOR 6 MO STARTING 3 WKS AFTER ARSENITE, Doses [Promoter]: 5.0 MG/L STARTING AT 3 WKS OF AGE (STUDY DURATION: 28 WKS), Route [Carcinogen]: DERMAL, Route [Promoter]: DRINKING WATER, Species: MOUSE, Strain/Sex: CRL:SK1-HRBD (HAIRLESS)/FEMALE); “skin: squamous cell carcinoma” (Carcinogen: UV-B IRRADIATION (WESTINGHOUSE SOLAR FS-20 LAMP 85% IN 290-320 NM RANGE), Doses [Carcinogen]: 1.7 KJ/SQ M 3/WK FOR 182 D BEGINNING 3 WK POST PROMOTER FIRST DOSE, Doses [Promoter]: 0, 10 MG/L IN DRINKING WATER BEGINNING AT 21 D AFTER BIRTH (STUDY DURATION: 203 D), Route [Carcinogen]: DERMAL, Route [Promoter]: ORAL, Species: MOUSE, Strain/Sex: SKH/FEMALE).
For the compound `CCCCCCCCCCCC(=O)O`, where the note is “Carcinogen: 7,12-DIMETHYLBENZ(A)ANTHRACENE, Doses [Carcinogen]: TOP, Route [Carcinogen]: DERMAL, Route [Promoter]: DERMAL, Species: MOUSE, Strain/Sex: MALE,FEMALE”, the outcome is listed as “integumentary system (skin)”.
Turning to `Cc1ncc([N+](=O)[O-])n1CCO`, the outcome by setting is: (Carcinogen: 1,2-DIMETHYLHYDRAZINE, 540-73-8, Doses [Carcinogen]: 40 MG/KG/WK FOR 20 WK, Doses [Promoter]: 0, 18 MG/KG/D FOR 20 WK (STUDY DURATION: 20 WK), Route [Carcinogen]: SUBCUTANEOUS, Route [Promoter]: GAVAGE, Species: RAT, Strain/Sex: WISTAR/MALE) “colon: tumor”; (Carcinogen: UV IRRADIATION, Doses [Carcinogen]: 0.53 J/CM2 INCREASED BY 20% EVERY 2 WK TO 1.60 J/CM2 AND MAINTAINED AT 1.60 J/CM2 UNTIL DEATH, ADMINISTERED 5 D/WK FOR 1, Doses [Promoter]: 0, 15 UG/G BEGINNING 2 WK POST FIRST CARCINOGEN DOSE ADMINISTERED 2 HR PRIOR TO EACH CARCINOGEN DOSE (STUDY DURATION: 30, Route [Carcinogen]: DERMAL, Route [Promoter]: INTRAPERITONEAL, Species: MOUSE, Strain/Sex: SKH/HRL/FEMALE) “skin: tumor”.
Regarding `O=C(O)C(Cl)(Cl)Cl`, the outcome by setting is: (Carcinogen: N-METHYL-N-NITROSOUREA, 684-93-5, Doses [Carcinogen]: 25 MG/KG IN STERILE SALINE ONCE, Doses [Promoter]: 0, 25 MMOL/L IN DRINKING WATER FOR 44 WK BEGINNING 2 WK POST CARCINOGEN DOSE (STUDY DURATION: 46 WK), Route [Carcinogen]: INTRAPERITONEAL, Route [Promoter]: ORAL, Species: MOUSE, Strain/Sex: B6C3F1/FEMALE) “liver: adenoma”; (Carcinogen: N-METHYL-N-NITROSOUREA, 684-93-5, Doses [Carcinogen]: 25 MG/KG ONCE AT 15 D OF AGE, Doses [Promoter]: 0, 20 NMOL/L IN DRINKING WATER FOR 31 WK BEGINNING AT 7 WK OF AGE (STUDY DURATION: 31 WK), Route [Carcinogen]: INTRAPERITONEAL, Route [Promoter]: ORAL, Species: MOUSE, Strain/Sex: B6C3F1/FEMALE) “liver: adenoma”; (Carcinogen: N-METHYL-N-NITROSOUREA, 684-93-5, Doses [Carcinogen]: 25 MG/KG ONCE AT 15 D OF AGE, Doses [Promoter]: 0, 20 NMOL/L IN DRINKING WATER FOR 31 WK BEGINNING AT 7 WK OF AGE (STUDY DURATION: 52 WK), Route [Carcinogen]: INTRAPERITONEAL, Route [Promoter]: ORAL, Species: MOUSE, Strain/Sex: B6C3F1/FEMALE) “liver: adenoma, carcinoma”; (Carcinogen: N-METHYL-N-NITROSOUREA, 684-93-5, Doses [Carcinogen]: 25 MMG/KG ONCE AT 15 D OF AGE, Doses [Promoter]: 0, 6.67, 20 NMOL/L IN DRINKING WATER FOR 52 WK BEGINNING AT 7 WK OF AGE (STUDY DURATION: 52 WK), Doses [Promoter]: 0, 6.67, 20 NMOL/L IN DRINKING WATER FOR 52 WK BEGINNING AT 7 WK OF AGE (STUDY DURATION: 52 WK), Route [Carcinogen]: INTRAPERITONEAL, Route [Promoter]: ORAL, Species: MOUSE, Strain/Sex: B6C3F1/FEMALE) “liver: adenoma, carcinoma”.
With `C[C@]12CC[C@H](O)CC1=CC[C@@H]1[C@@H]2CC[C@]2(C)C(=O)CC[C@@H]12`, the outcome was “liver: tumor” (Carcinogen: N-METHYL-N'-NITRO-N-NITROSOGUANIDINE, 70-25-7, Doses [Carcinogen]: 35 PPM IN WATER FOR 30 MIN ONCE, Doses [Promoter]: 0, 111, 222, 444, 888 PPM IN DIET FOR 6 MO BEGINNING 3 MO POST CARCINOGEN TREATMENT (STUDY DURATION: 9 MO), Doses [Promoter]: 0, 111, 222, 444, 888 PPM IN DIET FOR 6 MO BEGINNING 3 MO POST CARCINOGEN TREATMENT (STUDY DURATION: 9 MO), Route [Carcinogen]: IMMERSION, Route [Promoter]: ORAL, Species: FISH, Strain/Sex: RAINBOW TROUT/MALE,FEMALE); “kidney: tumor” (Carcinogen: N-METHYL-N'-NITRO-N-NITROSOGUANIDINE, 70-25-7, Doses [Carcinogen]: 35 PPM IN WATER FOR 30 MIN ONCE, Doses [Promoter]: 0, 111, 888 PPM IN DIET FOR 6 MO BEGINNING 3 MO POST CARCINOGEN TREATMENT (STUDY DURATION: 9 MO), Doses [Promoter]: 0, 111, 888 PPM IN DIET FOR 6 MO BEGINNING 3 MO POST CARCINOGEN TREATMENT (STUDY DURATION: 9 MO), Route [Carcinogen]: IMMERSION, Route [Promoter]: ORAL, Species: FISH, Strain/Sex: RAINBOW TROUT/MALE,FEMALE); “liver: hepatocellular carcinoma” (Carcinogen: N-NITROSOMORPHOLINE, 59-89-2, Doses [Carcinogen]: 120 MG/L IN DRINKING WATER FOR 7 WK, Doses [Promoter]: 0, 0.6% IN THE DIET FOR DURATION OF STUDY BEGINNING 1 WK POST CARCINOGEN TREATMENT (STUDY DURATION: 84 WK), Route [Carcinogen]: ORAL, Route [Promoter]: ORAL, Species: RAT, Strain/Sex: SPRAGUE-DAWLEY/FEMALE); “liver: hepatocellular adenoma” (Carcinogen: N-NITROSOMORPHOLINE, 59-89-2, Doses [Carcinogen]: 120 MG/L IN DRINKING WATER FOR 7 WK, Doses [Promoter]: 0, 0.6% IN THE DIET FOR DURATION OF STUDY BEGINNING 1 WK POST CARCINOGEN TREATMENT (STUDY DURATION: 84 WK), Route [Carcinogen]: ORAL, Route [Promoter]: ORAL, Species: RAT, Strain/Sex: SPRAGUE-DAWLEY/MALE); “liver: tumor” (Doses [Carcinogen]: 10 PPB IN WATER FOR 30 MIN, Doses [Promoter]: 0, 444 PPM IN DIET FOR 6 MO BEGINNING 3 MO POST CARCINOGEN TREATMENT (STUDY DURATION: 9 MO), Route [Carcinogen]: IMMERSION, Route [Promoter]: ORAL, Species: FISH, Strain/Sex: RAINBOW TROUT/MALE, FEMALE); “liver: tumor” (Doses [Carcinogen]: 10 PPB IN WATER, Doses [Promoter]: 0, 222, 444, 888 PPM IN DIET 1/D 5 D/WK FOR 30 WK BEGINNING 16 WK POST CARCINOGEN TREATMENT (STUDY DURATION: 46 WK), Doses [Promoter]: 0, 222, 444, 888 PPM IN DIET 1/D 5 D/WK FOR 30 WK BEGINNING 16 WK POST CARCINOGEN TREATMENT (STUDY DURATION: 46 WK), Route [Carcinogen]: IMMERSION, Route [Promoter]: ORAL, Species: FISH, Strain/Sex: RAINBOW TROUT/MALE, FEMALE).
As to `C/C=C(\C(=C/C)c1ccc(O)cc1)c1ccc(O)cc1`, where the note is “Carcinogen: IRRADIATION, Doses [Carcinogen]: 260 CGY GAMMA RAYS AT DAY 20 OF PREGNANCY, Doses [Promoter]: 0, 0.376 UG/D RELEASED FROM PELLET IMPLANTED AFTER NURSING DISCONTINUED, PELLET REPLACED EVERY 8 WK (STUDY DURATION: 1 Y, Route [Carcinogen]: DERMAL, Route [Promoter]: IMPLANT, Species: RAT, Strain/Sex: WISTAR/FEMALE”, the outcome is on record as “mammary gland: tumor”.
As for `C#C[C@]1(O)CC[C@H]2[C@@H]3CCc4cc(OC)ccc4[C@H]3CC[C@@]21C`, the outcome (Carcinogen: DIETHYLNITROSAMINE, 55-18-5, Doses [Carcinogen]: 20 MG/KG IN 0.85% SALINE ONCE PRECEDED 24 HR BY 2/3 PARTIAL HEPATECTOMY, Doses [Promoter]: 0, 0.1, 0.5 PPM IN DIET FOR 12 MO BEGINNING 24 HR POST CARCINOGEN (STUDY DURATION: 12 MO), Doses [Promoter]: 0, 0.1, 0.5 PPM IN DIET FOR 12 MO BEGINNING 24 HR POST CARCINOGEN (STUDY DURATION: 12 MO), Route [Carcinogen]: INTRAPERITONEAL, Route [Promoter]: ORAL, Species: RAT, Strain/Sex: CD-1/FEMALE) was “liver: hepatocellular carcinoma”.
Take `Oc1ccc(/C=C/c2cc(O)cc(O)c2)cc1`: the outcome (Carcinogen: N-METHYL-N-NITROSOUREA, 684-93-5, Doses [Carcinogen]: 50 MG/KG ONCE AT 7 WK OF AGE, Doses [Promoter]: 100 MG/KG DAILY FOR 5 D AT 2 WK OF AGE (STUDY DURATION: 37 WK), Route [Carcinogen]: INTRAPERITONEAL, Route [Promoter]: SUBCUTANEOUS, Species: RAT, Strain/Sex: SPRAGUE-DAWLEY/FEMALE) is “mammary gland: adenocarcinoma”.
With `CC(=O)Nc1ccc2c(c1)C(=O)c1ccccc1-2`, the outcome (Carcinogen: DIETHYLNITROSAMINE, 55-18-5, Doses [Carcinogen]: 200 MG/KG BW IN 0.9% SALINE ONCE, Doses [Promoter]: 0, 0.1 MMOL/KG BW IN POLYETHYLENE GLYCOL FOR 5 D BEGINNING 1 WK POST CARCINOGEN DOSE, 70% HEPATECTOMY PERFORMED 3 D AFTE, Route [Carcinogen]: INTRAPERITONEAL, Route [Promoter]: GAVAGE, Species: RAT, Strain/Sex: SPRAGUE-DAWLEY/MALE) is recorded as “liver: hepatocellular carcinoma”.
